Series [1] concerns the target T1, estrogen receptor α (ERα) (Homo sapiens, UniProt P03372).
T1 construct: endogenous in cells; host or cells: MCF-7
T1 sequence (P03372 1-595): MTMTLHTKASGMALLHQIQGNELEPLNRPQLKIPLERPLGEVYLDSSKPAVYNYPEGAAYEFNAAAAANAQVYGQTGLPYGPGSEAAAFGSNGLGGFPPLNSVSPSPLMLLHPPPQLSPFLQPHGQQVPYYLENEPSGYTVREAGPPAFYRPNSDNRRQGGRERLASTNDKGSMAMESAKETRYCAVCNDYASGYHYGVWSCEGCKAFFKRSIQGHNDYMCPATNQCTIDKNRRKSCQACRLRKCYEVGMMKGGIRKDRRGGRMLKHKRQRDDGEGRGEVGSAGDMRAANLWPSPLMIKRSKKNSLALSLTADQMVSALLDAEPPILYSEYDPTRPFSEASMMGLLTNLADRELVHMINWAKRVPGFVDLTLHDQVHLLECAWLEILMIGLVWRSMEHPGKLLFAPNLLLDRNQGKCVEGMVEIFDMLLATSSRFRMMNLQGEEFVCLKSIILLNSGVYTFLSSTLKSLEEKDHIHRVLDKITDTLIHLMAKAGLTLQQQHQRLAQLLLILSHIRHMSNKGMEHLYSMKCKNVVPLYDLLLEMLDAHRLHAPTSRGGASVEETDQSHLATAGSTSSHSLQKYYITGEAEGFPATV
Put plainly: Western blot of ER protein expression (down-regulation). It counts as cell-based. Background: A western blot detects proteins with antibodies after separation by electrophoresis.

The next series concerns T47D/PKCα. Put plainly: Cytotoxicity in breast cancer cell lines (T47D/PKCα). It counts as cell-based. Particulars: T47D/PKCα cells.
Another series relates to BT474. Put plainly: Cytotoxicity in breast cancer cell lines (BT474). The format is cell-based. Particulars: BT474 cells.
A further series concerns MCF-7. Put plainly: Cytotoxicity in breast cancer cell lines (MCF-7). The format is cell-based. Particulars: MCF-7 cells.
A further series relates to MCF-7/TamR. Briefly: Cytotoxicity in breast cancer cell lines (MCF-7/TamR). It counts as cell-based. Particulars: MCF-7/TamR cells.
Series [2] concerns the target T1, estrogen receptor α (ERα). Briefly: Binding to estrogen receptor α. The following applies: FIG. 15.
The conditions of series [3]: cited from earlier work.

The IC50 is the midpoint of a concentration-inhibition curve. Lower therefore signals greater potency. Turning to `C[C@]12CC[C@@H]3c4ccc(B(O)O)cc4C[C@@H](CCCCCCCCC[S+]([O-])CCCC(F)(F)C(F)(F)F)[C@H]3[C@@H]1CC[C@@H]2O` (some centres unmarked) [SERD 9], in series [1] (FIG. 14, cell line not stated), the ER protein expression entry is “dramatically downregulated”. For the same compound, the IC50 in the series with T47D/PKCα (Homo sapiens) came out at 370 nM; in the series with BT474 (Homo sapiens, BT-474) it was 390 nM; in the series with MCF-7 (Homo sapiens, MCF7), 3.2 nM; with MCF-7/TamR (Homo sapiens, MCF7), 44 nM. In addition, the “binding to estrogen receptor α (ERα)” value in series [2] was “high affinity”.
On to `C[C@]12CC[C@@H]3c4ccc(O)cc4C[C@@H](CCCCCCCCC[S+]([O-])CCCC(F)(F)C(F)(F)F)[C@H]3[C@@H]1CC[C@@H]2O` (some centres unmarked) [Fulvestrant], for which the ER protein expression result in series [1] (FIG. 14, cell line not stated) is listed as “dramatically downregulated”. Moreover, the peak blood concentration in series [3] (higher dose of 500 mg, FINDER1 and FINDER2 clinical trials) is on record as less than 25 ng/mL. For the same compound, the “time to reach steady state concentration in patient plasma” value in series [3] (higher dose of 500 mg) was 1 month. The “bioavailability if administered orally” value in series [3] (oral) is listed as “very poor bioavailability”. In addition, in series [3] (standard intramuscular (i.m.) injection), the “time to reach steady state serum concentration” value was 3-4 months.
Consider 4-Hydroxytamoxifen [reference compound], for which the IC50 came out at 540 nM with T47D/PKCα, 1430 nM in the series with BT474, 3.3 nM in the series with MCF-7 and 21100 nM in the series on MCF-7/TamR.
For the compound `CC/C(=C(\c1ccc(/C=C/C(=O)O)cc1)c1ccc(B2OC(C)(C)C(C)(C)O2)cc1)c1ccccc1` [SERD 6], the IC50 in the series on T47D/PKCα (Homo sapiens) is 6540 nM; in the series with BT474 (Homo sapiens, BT-474), 80500 nM; in the series on MCF-7 (Homo sapiens, MCF7) it was 7730 nM; in the series with MCF-7/TamR (Homo sapiens, MCF7), 4530 nM.
With `CCC(=C(c1ccc(/C=C/C(=O)O)cc1)c1ccc(B(O)O)cc1)c1ccccc1` [SERD 4], the ER protein expression entry in series [1] (MCF-7 cells, FIG. 13) is “dramatically downregulated”. The IC50 with MCF-7 (Homo sapiens, MCF7) turned out to be 1800 nM; in the series with MCF-7/TamR (Homo sapiens, MCF7), 1200 nM. Also, in series [2], the “binding to estrogen receptor α (ERα)” value is listed as “high affinity”.
